The values below come from patent US20040091479A1, “T-cell epitope of the papillomavirus l1 and e7 protein and use thereof in diagnostics and therapy” (priority 2000, published 2004).

One test relates to human T cells. Kind of test: Summary of examples 3 to 18: epitopes recognized by human T cells. Particulars: Table 4, HPV18 peptides, species human; MHC restriction. The class given is cell-based.
The subject of test [1] is TIL from an HPV18- and HLA-A2-positive patient. The experiment in a line: ELISpot of tumor-infiltrating lymphocytes with peptide-loaded K-A2 cells. The class given is cell-based, human. Particulars: peptide-loaded K-A2 stimulators; FIG. 18 bottom.
The subject of test [2] is autologous peptide-loaded BLCL. The experiment in a line: Cytotoxicity test (chromium release assay) of HPV18 E786-94-specific T cells. The note with it: effector to target ratio of 30:1, FIG. 17 bottom. The class given is cell-based, human. On the procedure: The predicted peptides were synthesized using standard methods (F moc method). […] For this, 1×10^5 PBMC derived from healthy, HLA-A2-positive donors were sown, in 100 μl of medium (RPMI 1640, 10% heat-inactivated AB plasma), in each well of a 96-well plate. 20 μg of peptide/ml were added to the culture medium. The cells were incubated at 37° C. and restimulated once per week with irradiated peptide-loaded autologous PBMC. The stimulator PBMC were incubated for 4 hours in medium containing 20 μg of peptide/ml. After the irradiation, they were diluted down to 1×10^4/100 μl with medium and added to the peptide-stimulated PBMC. For this, half the medium was aspirated from each well and 100 μl of the stimulator PBMC suspension were added. 10 U of IL-2/ml and 10 U of IL-7/ml were added from the 3rd stimulation onwards. From the 5th stimulation onwards, restimulation was carried out in the same manner using peptide-loaded autologous B lymphoblast cell lines (BLCL).
The cytotoxicity of HPV18 E786-94-specific T cells was determined in a chromium release assay. Autologous BLCL were used as the target cells. In each case, 5×10^5 cells were taken up in 100 μl of medium (RPMI 1640, 10% FCS) and treated with 20 μl of ^51chromium (NEN). For loading the BLCL with peptide, 50 μg of the corresponding peptide were added/ml. After that, the cells were incubated at room temperature for 2 hours while being carefully resuspended every 20-30 min. The cells were then washed 3 times with 5 ml of medium. For the sedimenting, the cells were in each case centrifuged at 1500 rpm for 5 min and then carefully resuspended. […]
The assay samples were incubated for 4 hours at 37° C., 98% atmospheric humidity and 5% CO2. […] On the following day, 150 μl of Microscint 40 scintillation fluid (Canberra-Packard, Deieich) were added and the numbers of distintegrations per minute in the individual assay samples were measured in the scintillation counter (Topcount, Canberra-Packard, Dreieich).
The specific lysis was calculated using the following formula: […]

For test [3], the system named is T cell line generated with HeLa CD80/HLA-A2 transfectants (H7.1-A2). Kind of test: IFN-γ ELISpot of H7.1-A2-specific T cell line against peptide-loaded autologous PBMC. The note with it: H7.1-A2-induced T cell line, FIG. 17 top. The class given is cell-based, human.
The subject of test [4] is T cell lines directed against HPV18 E7. The experiment in a line: ELISpot of T cell lines induced with HPV18 E7-loaded dendritic cells. The class given is cell-based, human. The note with it: E7 protein-induced and E7 peptide pool-induced T cell lines; epitope-loaded DC; FIG. 18 top. On the procedure: 1×10^4 stimulator cells (K-A2 cells, that is K-562 cells (ATCC CCL-243) were transfected with an HLA A2 expression vector, PBMC or dendritic cells) were sown, in 60 μl of medium (RPMI 1640, 0.4% human albumin), in one well of a 96-well round-bottomed cell culture plate and loaded overnight with 50 μg of peptide/ml. On the following day, 5×10^4 T cells, in 60 μl of medium (containing 10 U each of IL-2 and IL-7/ml), were added to each well and the plate was incubated for 4 hours. A Millipore nitrocellulose HA plate was coated overnight, at 4° C., with the anti-human IFN-γ monoclonal antibody 1-Dlk (10 μg/ml in PBS, 60 μl/well, Hölzel Diagnostika, Cologne). On the following day, the plate was washed 3 times for in each case 5 min with 150 μl of sterile PBS per well and then blocked with medium for 1 hour at 37° C. The blocking medium was removed and the cells were transferred from the round-bottomed cell culture plate to the filter plate and then incubated for a further 20 to 22 hours. After that, the cells and the medium were removed and the filter plate was washed 6 times for 2 min with PBS/Tween 20 (0.05%). The antibody Ab-7-B6-1-biotin was then added (2 μg/ml in PBS/BSA, 60 μl/well, Hölzel Diagnostika) and the plate was incubated at 4° C. overnight. […] The spots were counted using a ZEISS-VISION (Halbergmoos) ELISpot readout system. […]

As to “FQQLFLNTL [HPV18 E786-94, HPV18 E7 86-94]”, the Haplotype entry in the test with human T cells is listed as “HLA-A2”. Moreover, the “ELISpot reaction of TIL populations” value in test [1] was “marked reaction”. In addition, the specific lysis result in test [2] was “approx. 20%”. The “IFN-γ ELISpot reaction” value in test [3] is reported as “specific reaction”. The “epitope-specific T cells in ELISpot assay” value in test [4] is “detected in both T cell lines”.
